From patent publication US11254668B2, “Pyrazolo[1,5-A]pyrazin-4-yl and related derivatives” (Pfizer Inc., priority 2017, dated 2022) come the findings set out here.

Structures are written as SMILES.

Holding throughout (type): biochemical
Holding throughout (details): JAK Caliper enzyme assay

Experiment [1] has as its target TYK2 (Homo sapiens (Human), UniProt P29597). The experiment can be described thus: JAK Caliper Enzyme Assay at 1 mM ATP, TYK2. In outline:
(§1)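 First, compound was incubated at room temperature with recombinant human kinase domain, a synthetic peptide and 1 mM ATP until 20–30% of peptide was phosphorylated. Next, EDTA stopped the reaction. Finally, electrophoretic separation quantified product, and percent effect relative to controls was plotted against concentration.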

For experiment [2], the target named is JAK1 (Homo sapiens (Human), UniProt P23458). The experiment can be described thus: JAK Caliper Enzyme Assay at 1 mM ATP, JAK1. In outline:
(§2)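 Recombinant human kinase domains phosphorylated a fluorescent synthetic peptide at room temperature, with enzyme level and time tuned to 20% to 30% conversion; EDTA stop buffer ended reactions. Mobility-shift separation gave percent product from peak heights, normalised to DMSO and positive controls, and IC50s came from concentration–effect curves.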

Experiment [3] has as its target JAK2 (Homo sapiens (Human), UniProt O60674). The experiment can be described thus: JAK Caliper Enzyme Assay at 1 mM ATP, JAK2. In outline:
as §1

The target in experiment [4] is JAK3 (Homo sapiens (Human), UniProt P52333). The experiment can be described thus: JAK Caliper Enzyme Assay at 1 mM ATP, JAK3. In outline:
as §2

JAK3, sequence (P52333 822-1111): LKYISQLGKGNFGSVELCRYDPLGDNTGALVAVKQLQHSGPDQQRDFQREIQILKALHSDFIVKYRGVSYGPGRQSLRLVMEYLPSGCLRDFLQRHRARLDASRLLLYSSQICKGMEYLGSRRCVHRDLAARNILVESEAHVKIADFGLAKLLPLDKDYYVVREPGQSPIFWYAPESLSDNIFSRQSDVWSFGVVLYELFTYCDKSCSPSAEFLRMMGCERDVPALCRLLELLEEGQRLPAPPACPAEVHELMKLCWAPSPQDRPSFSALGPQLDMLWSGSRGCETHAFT
JAK2, sequence (O60674 849-1124): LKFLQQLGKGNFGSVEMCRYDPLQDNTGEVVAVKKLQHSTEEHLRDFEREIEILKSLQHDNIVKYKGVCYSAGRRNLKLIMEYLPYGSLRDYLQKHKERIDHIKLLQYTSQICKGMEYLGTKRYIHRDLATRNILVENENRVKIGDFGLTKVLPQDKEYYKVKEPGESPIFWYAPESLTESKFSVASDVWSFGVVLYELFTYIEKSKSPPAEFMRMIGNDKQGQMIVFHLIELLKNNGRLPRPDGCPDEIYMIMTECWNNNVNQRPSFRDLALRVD
TYK2, sequence (P29597 897-1176): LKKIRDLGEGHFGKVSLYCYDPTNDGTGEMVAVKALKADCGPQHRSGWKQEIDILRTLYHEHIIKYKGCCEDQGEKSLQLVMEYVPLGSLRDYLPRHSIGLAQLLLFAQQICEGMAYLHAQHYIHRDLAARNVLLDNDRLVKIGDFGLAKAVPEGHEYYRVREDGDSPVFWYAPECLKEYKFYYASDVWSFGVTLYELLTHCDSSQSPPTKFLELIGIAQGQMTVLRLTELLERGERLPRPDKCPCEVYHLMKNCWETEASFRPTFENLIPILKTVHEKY
JAK1, sequence (P23458 875-1153): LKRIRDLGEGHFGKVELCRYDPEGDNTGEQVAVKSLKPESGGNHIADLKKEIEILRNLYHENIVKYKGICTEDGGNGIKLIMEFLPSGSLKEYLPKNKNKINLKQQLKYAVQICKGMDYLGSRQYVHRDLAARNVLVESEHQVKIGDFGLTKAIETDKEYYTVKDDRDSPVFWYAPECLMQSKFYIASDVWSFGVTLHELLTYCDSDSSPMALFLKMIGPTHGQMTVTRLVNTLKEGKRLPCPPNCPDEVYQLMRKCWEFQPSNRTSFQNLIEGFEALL

In the case of `CS(=O)(=O)Nc1cccc(-c2cc(-c3cnn(C4(CC#N)CC(C#N)C4)n3)c3cccnc3c2)n1` (stereo not drawn) [Example 373, N-[6-(5-{2-[trans-3-cyano-1-(cyanomethyl)cyclobutyl]-2H-1,2,3-triazol-4-yl}quinolin-7-yl)pyridin-2-yl]methanesulfonamide], the IC50 (as a rule, the concentration that gives 50% inhibition) is 69 nM in experiment [1], 4070 nM in experiment [2], 411 nM in experiment [3] and over 10000 nM in experiment [4].

`CS(=O)(=O)Nc1ccc(-c2cc(-c3cnn(C4(CC#N)CC(C#N)C4)n3)c3cccnc3c2)nc1` (stereo not drawn) [Example 374, N-[6-(5-{2-[cis-3-cyano-1-(cyanomethyl)cyclobutyl]-2H-1,2,3-triazol-4-yl}quinolin-7-yl)pyridin-3-yl]methanesulfonamide]: the IC50 is 9 nM in experiment [1], 53 nM in experiment [2], 25 nM in experiment [3] and 2890 nM in experiment [4].

As to `CS(=O)(=O)Nc1ccc(-c2cc(-c3cnn(C4(CC#N)CC(C#N)C4)n3)c3cccnc3c2)nc1` (stereo not drawn) [Example 375, N-[6-(5-{2-[trans-3-cyano-1-(cyanomethyl)cyclobutyl]-2H-1,2,3-triazol-4-yl}quinolin-7-yl)pyridin-3-yl]methanesulfonamide], the IC50 is 30 nM in experiment [1], 452 nM in experiment [2], 148 nM in experiment [3] and over 10000 nM in experiment [4].

With `CC(=O)Nc1cccc(-c2cc(-c3cnn([C@]4(CC#N)C[C@@H](C#N)C4)n3)c3cccnc3c2)n1` [Example 376, N-[6-(5-{2-[trans-3-cyano-1-(cyanomethyl)cyclobutyl]-2H-1,2,3-triazol-4-yl}quinolin-7-yl)pyridin-2-yl]acetamide], the IC50 in experiment [1] was 36 nM; in experiment [2], 593 nM; in experiment [3] it was 155 nM; in experiment [4], 9480 nM.

For the compound `CC(=O)Nc1cccc(-c2cc(-c3cnn(C4(CC#N)CC(C#N)C4)n3)c3cccnc3c2)n1` (stereo not drawn) [Example 377, N-[6-(5-{2-[cis-3-cyano-1-(cyanomethyl)cyclobutyl]-2H-1,2,3-triazol-4-yl}quinolin-7-yl)pyridin-2-yl]acetamide], the IC50 was 14 nM in experiment [1], 73 nM in experiment [2], 33 nM in experiment [3] and 1350 nM in experiment [4].

`Cc1nc(-c2cc(-c3cnn([C@]4(CC#N)C[C@H](C#N)C4)n3)c3cccnc3c2)ccc1CCO` [Example 378, cis-3-(cyanomethyl)-3-(4-{7-[5-(2-hydroxyethyl)-6-methylpyridin-2-yl]quinolin-5-yl}-2H-1,2,3-triazol-2-yl)cyclobutanecarbonitrile]: the IC50 in experiment [1] is 35 nM; in experiment [2], 575 nM; in experiment [3] it was 93 nM; in experiment [4], 9500 nM.

For the compound `Cc1nc(-c2cc(-c3cnn([C@]4(CC#N)C[C@@H](C#N)C4)n3)c3cccnc3c2)ccc1CCO` [Example 379, trans-3-(cyanomethyl)-3-(4-{7-[5-(2-hydroxyethyl)-6-methylpyridin-2-yl]quinolin-5-yl}-2H-1,2,3-triazol-2-yl)cyclobutanecarbonitrile], the IC50 in experiment [1] was 123 nM; in experiment [2], 4360 nM; in experiment [3], 540 nM; in experiment [4], over 10000 nM.

Regarding `N#CC[C@]1(n2ncc(-c3cc(-c4cc5c(cn4)CCN5)cc4ncccc34)n2)C[C@@H](C#N)C1` [Example 380, cis-3-(cyanomethyl)-3-{4-[7-(2,3-dihydro-1H-pyrrolo[3,2-c]pyridin-6-yl)quinolin-5-yl]-2H-1,2,3-triazol-2-yl}cyclobutanecarbonitrile], the IC50 is 194 nM in experiment [1], 9390 nM in experiment [2], 811 nM in experiment [3] and over 10000 nM in experiment [4].

For the compound `Cc1nc(-c2cc(-c3cnn([C@]4(CC#N)C[C@H](C#N)C4)n3)c3cccnc3c2)ccc1O` [Example 381, cis-3-(cyanomethyl)-3-{4-[7-(5-hydroxy-6-methylpyridin-2-yl)quinolin-5-yl]-2H-1,2,3-triazol-2-yl}cyclobutanecarbonitrile], the IC50 in experiment [1] is 30 nM; in experiment [2] it was 432 nM; in experiment [3] it was 138 nM; in experiment [4] it was over 10000 nM.

Take `Cc1nc(-c2cc(-c3cnn([C@]4(CC#N)C[C@@H](C#N)C4)n3)c3cccnc3c2)ccc1O` [Example 382, trans-3-(cyanomethyl)-3-{4-[7-(5-hydroxy-6-methylpyridin-2-yl)quinolin-5-yl]-2H-1,2,3-triazol-2-yl}cyclobutanecarbonitrile]: the IC50 was 141 nM in experiment [1], 3060 nM in experiment [2], 1020 nM in experiment [3] and over 10000 nM in experiment [4].

On to `COc1nc(-c2cc(-c3cnn([C@]4(CC#N)C[C@H](C#N)C4)n3)c3cccnc3c2)ccc1N` [Example 383, cis-3-{4-[7-(5-amino-6-methoxypyridin-2-yl)quinolin-5-yl]-2H-1,2,3-triazol-2-yl}-3-(cyanomethyl)cyclobutanecarbonitrile], for which the IC50 in experiment [1] was found to be 7 nM; in experiment [2], 59 nM; in experiment [3], 35 nM; in experiment [4] it was 4250 nM.

For `COc1nc(-c2cc(-c3cnn([C@]4(CC#N)C[C@@H](C#N)C4)n3)c3cccnc3c2)ccc1N` [Example 384, trans-3-{4-[7-(5-amino-6-methontpyridin-2-yl)quinolin-5-yl]-2H-1,2,3-triazol-2-yl}-3-(cyanomethyl)cyclobutanecarbonitrile], the IC50 is 33 nM in experiment [1], 769 nM in experiment [2], 256 nM in experiment [3] and over 10000 nM in experiment [4].

With `N#CC[C@]1(n2ncc(-c3cc(-c4cc(C(N)=O)c(F)cn4)cc4ncccc34)n2)C[C@H](C#N)C1` [Example 385, 2-(5-{2-[cis-3-cyano-1-(cyanomethyl)cyclobutyl]-2H-1,2,3-triazol-4-yl}quinolin-7-yl)5-fluoropyridine-4-carboxamide], the IC50 in experiment [1] was 984 nM; in experiment [2], 6270 nM; in experiment [3], 6780 nM; in experiment [4] it was over 10000 nM.

With `N#CC[C@]1(n2ncc(-c3cc(-c4cc(C(N)=O)c(F)cn4)cc4ncccc34)n2)C[C@@H](C#N)C1` [Example 386, 2-(5-{2-[trans-3-cyano-1-(cyanomethyl)cyclobutyl]-2H-1,2,3-triazol-4-yl}quinolin-7-yl)-5-fluoropyridine-4-carboxamide], the IC50 in experiment [1] was 3760 nM; in experiment [2], over 10000 nM; in experiment [3], over 10000 nM; in experiment [4], over 10000 nM.

As for `N#CC[C@]1(n2ncc(-c3cc(-c4cc(O)ncc4F)cc4ncccc34)n2)C[C@@H](C#N)C1` [Example 387, cis-3-(cyanomethyl)-3-{4-[7-(5-fluoro-2-hydroxpyridin-4-yl)quinolin-5-yl]-2H-1,2,3-triazol-2-yl}cyclobutanecarbonitrile], the IC50 in experiment [1] was 4840 nM; in experiment [2], over 10000 nM; in experiment [3], over 10000 nM; in experiment [4], over 10000 nM.

In the case of `Cc1cc(-c2cc(-c3cnn(C4(CC#N)CN(S(C)(=O)=O)C4)n3)c3cccnc3c2)cnc1N` [Example 388, [3-{4-[7-(6-amino-5-methylpyridin-3-yl)quinolin-5-yl]-2H-1,2,3-triazol-2-yl}-1-(methylsulfonyl)azetidin-3-yl]acetonitrile], the IC50 is 1780 nM in experiment [1], over 10000 nM in experiment [2], 6880 nM in experiment [3] and over 10000 nM in experiment [4].

With `CS(=O)(=O)N1CC(CC#N)(n2ncc(-c3cc(-c4cncnc4)cc4ncccc34)n2)C1` [Example 389, [1-(methylsulfonyl)-3-{4-[7-(pyrimidin-5-yl)quinolin-5-yl]-2H-1,2,3-triazol-2-yl}azetidin-3-yl]acetonitrile], the IC50 in experiment [1] is 5040 nM; in experiment [2], over 10000 nM; in experiment [3], over 10000 nM; in experiment [4] it was over 10000 nM.

Regarding `N#CCC1(n2ncc(-c3cc(-c4ncccn4)cc4ncccc34)n2)CC(C#N)C1` (stereo not drawn) [Example 390, trans-3-(cyanomethyl)-3-{4-[7-(pyrimidin-2-yl)quinolin-5-yl]-2H-1,2,3-triazol-2-yl}cyclobutanecarbonitrile], the IC50 in experiment [1] was 1280 nM; in experiment [2], over 10000 nM; in experiment [3] it was over 10000 nM; in experiment [4] it was over 10000 nM.

As to `N#CC[C@]1(n2ncc(-c3cc(-c4cncnc4)cc4ncccc34)n2)C[C@@H](C#N)C1` [Example 391, cis-3-(cyanomethyl)-3-{4-[7-(pyrimidin-5-yl)quinolin-5-yl]-2H-1,2,3-triazol-2-yl}cyclobutanecarbonitrile], the IC50 is 2840 nM in experiment [1], over 10000 nM in experiment [2], 9840 nM in experiment [3] and over 10000 nM in experiment [4].

As for `N#CC[C@]1(n2ncc(-c3cc(-c4cnccn4)cc4ncccc34)n2)C[C@@H](C#N)C1` [Example 392, cis-3-(cyanomethyl)-3-{4-[7-(pyrazin-2-yl)quinolin-5-yl]-2H-1,2,3-triazol-2-yl}cyclobutanecarbonitrile], the IC50 was 660 nM in experiment [1], 7110 nM in experiment [2], 3050 nM in experiment [3] and over 10000 nM in experiment [4].

For `CS(=O)(=O)N1CC(CC#N)(n2ncc(-c3cc(-c4cnc(N)nc4)cc4ncccc34)n2)C1` [Example 393, [3-{4-[7-(2-aminopyrimidin-5-yl)quinolin-5-yl]-2H-1,2,3-triazol-2-yl}-1-(methylsulfonyl)azetidin-3-yl]acetonitrile], the IC50 in experiment [1] was 3470 nM; in experiment [2] it was over 10000 nM; in experiment [3] it was over 10000 nM; in experiment [4], over 10000 nM.
